The source of these data is US7612065B2, “Inhibitors of c-JUN N-terminal kinases (JNK)” (priority 2007, dated 2009).

Some results are limits rather than exact numbers.

In this experiment the target is T1, JNK3 (Homo sapiens, UniProt P53779).
T1 construct: One such construct encodes amino acid residues Ser40-Glu402 of JNK3α1 and is preceded by Met and Gly residues; Met-Gly (initiation methionine plus glycine added for the NcoI site); made in house; host or cells: E. coli BL21 (DE3)
Briefly: JNK inhibition assay: spectrophotometric coupled-enzyme assay with activated JNK3. It is filed as biochemical. The following applies: activated JNK3 10 nM, 10 μM ATP, 200 μM EGF receptor peptide, 30° C., competitive inhibition model. Put shortly: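 Activated (doubly phosphorylated, MKK7(DD)-activated) human JNK3, 10 nM, preincubated 10 min at 30 °C with inhibitor in 0.1 M HEPES pH 7.5, 10 mM MgCl2, 200 μM EGF receptor peptide, PK/LDH-coupled. Started with 10 μM ATP; A340 decrease followed at 30 °C. Ki from competitive inhibition model fit.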

T1 sequence (P53779 40-402): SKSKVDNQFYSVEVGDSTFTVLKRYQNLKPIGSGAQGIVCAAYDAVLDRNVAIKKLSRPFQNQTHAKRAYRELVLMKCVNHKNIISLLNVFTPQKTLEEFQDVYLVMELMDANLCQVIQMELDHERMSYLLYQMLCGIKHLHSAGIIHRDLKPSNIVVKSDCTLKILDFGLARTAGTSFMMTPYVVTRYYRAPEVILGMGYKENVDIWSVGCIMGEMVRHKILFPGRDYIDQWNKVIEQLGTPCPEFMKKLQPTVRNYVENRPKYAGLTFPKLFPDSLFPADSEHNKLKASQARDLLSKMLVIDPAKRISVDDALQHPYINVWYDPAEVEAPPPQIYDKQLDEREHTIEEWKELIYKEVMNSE

For the molecule `Cc1ccccc1-c1ccc2c(c1)N(Cc1cc(F)cc3c1OCOC3)C(=O)/C2=N\O` [Compound 316], the Ki is below 1 µM.
Next, `O=C(Nc1ccc2c(c1)N(Cc1cc(F)cc3c1OCOC3)C(=O)/C2=N\O)c1ccccc1` [Compound 247]: below 1 µM; `O=C1/C(=N\O)c2c(Cl)cc(Cl)cc2N1Cc1cc(F)cc2c1OCOC2` [Compound 196]: below 1 µM.
In the case of `C[Si](C)(C)C#Cc1cccc2c1/C(=N/O)C(=O)N2Cc1cc(F)cc2c1OCOC2` [Compound 299] it was at least 1 µM.
Next, `COc1cc(CN2C(=O)/C(=N\O)c3cc(OC(F)(F)F)ccc32)cc(OC)c1` [Compound 107]: at least 1 µM; `Cc1cc(C)c2c(c1)N(Cc1cc(F)cc3c1OCOC3)C(=O)/C2=N\O` [Compound 167]: below 1 µM.
Turning to `COc1ccc(CN2C(=O)/C(=N\O)c3cc(F)ccc32)cc1` [Compound 78], the Ki is at least 1 µM.
In the case of `O=C1/C(=N\O)c2cc(Cl)ccc2N1Cc1ccccc1F` [Compound 51] it was at least 1 µM.
Next, `COc1ccc(CN2C(=O)/C(=N\O)c3cc(OC(F)(F)F)ccc32)cc1` [Compound 105]: at least 1 µM.
Next, `Cc1cc(Cl)cc2c1N(Cc1cccc(Oc3ccccc3)c1)C(=O)/C2=N\O` [Compound 100]: at least 1 µM; `COc1ccc2c(CN3C(=O)/C(=N/O)c4ccc(-c5ccsc5)cc43)cc(=O)oc2c1` [Compound 184]: at least 1 µM; `CC(=O)OC(C(=O)Nc1ccc2c(c1)N(Cc1cc(F)cc3c1OCOC3)C(=O)/C2=N/O)c1ccccc1` (stereo not drawn) [Compound 322]: at least 1 µM.
Take `Cc1cccc2c1/C(=N/O)C(=O)N2Cc1cc(F)cc2c1OCOC2` [Compound 301]: the inhibition constant (Ki) is below 1 µM.
Consider `Cc1ccccc1C(=O)c1ccc2c(c1)/C(=N\O)C(=O)N2Cc1cc(F)cc2c1OCOC2` [Compound 268], for which the Ki was below 1 µM.
In the case of `O=C1/C(=N\O)c2cc(Br)ccc2N1Cc1ccc([N+](=O)[O-])cc1` [Compound 25] it was at least 1 µM; in that of `CCS(=O)(=O)Nc1ccc2c(c1)N(Cc1cc(F)cc3c1OCOC3)C(=O)/C2=N\O` [Compound 263], below 1 µM.
In the case of `O=C(O)c1ccc(-c2ccc3c(c2)N(Cc2cc(F)cc4c2OCOC4)C(=O)/C3=N\O)cc1` [Compound 154], the Ki was below 1 µM.
In the case of `O=C(NCCc1c[nH]cn1)c1ccc2c(c1)N(Cc1cc(F)cc3c1OCOC3)C(=O)/C2=N\O` [Compound 292] it was at least 1 µM; in that of `O=C1/C(=N\O)c2ccccc2N1Cc1ccc(F)cc1` [Compound 17], at least 1 µM; in that of `O=C1/C(=N\O)c2ccc(-c3ccccc3C(F)(F)F)cc2N1Cc1cc(F)cc2c1OCOC2` [Compound 314], at least 1 µM.
In the case of `O=C1/C(=N\O)c2ccc(NO)cc2N1Cc1cc(F)cc2c1OCOC2` [Compound 209] it was below 1 µM.

What is called Ki is a dissociation constant, usually derived from enzyme kinetics or from competition with a known ligand.
